Source: US10676462B2, “Quinoline derivative” (ONO PHARMACEUTICAL CO., LTD., priority 2013, dated 2020)

Legend:
Axl enzyme = target: T1, Axl enzyme (Homo sapiens, UniProt P30530); test: Measurement of an Axl inhibitory activity (LanthaScreen TR-FRET, in vitro test); assay type: biochemical
T1 construct: a solution containing 400 ng/mL Axl enzyme was prepared
T1 sequence (P30530 26-894): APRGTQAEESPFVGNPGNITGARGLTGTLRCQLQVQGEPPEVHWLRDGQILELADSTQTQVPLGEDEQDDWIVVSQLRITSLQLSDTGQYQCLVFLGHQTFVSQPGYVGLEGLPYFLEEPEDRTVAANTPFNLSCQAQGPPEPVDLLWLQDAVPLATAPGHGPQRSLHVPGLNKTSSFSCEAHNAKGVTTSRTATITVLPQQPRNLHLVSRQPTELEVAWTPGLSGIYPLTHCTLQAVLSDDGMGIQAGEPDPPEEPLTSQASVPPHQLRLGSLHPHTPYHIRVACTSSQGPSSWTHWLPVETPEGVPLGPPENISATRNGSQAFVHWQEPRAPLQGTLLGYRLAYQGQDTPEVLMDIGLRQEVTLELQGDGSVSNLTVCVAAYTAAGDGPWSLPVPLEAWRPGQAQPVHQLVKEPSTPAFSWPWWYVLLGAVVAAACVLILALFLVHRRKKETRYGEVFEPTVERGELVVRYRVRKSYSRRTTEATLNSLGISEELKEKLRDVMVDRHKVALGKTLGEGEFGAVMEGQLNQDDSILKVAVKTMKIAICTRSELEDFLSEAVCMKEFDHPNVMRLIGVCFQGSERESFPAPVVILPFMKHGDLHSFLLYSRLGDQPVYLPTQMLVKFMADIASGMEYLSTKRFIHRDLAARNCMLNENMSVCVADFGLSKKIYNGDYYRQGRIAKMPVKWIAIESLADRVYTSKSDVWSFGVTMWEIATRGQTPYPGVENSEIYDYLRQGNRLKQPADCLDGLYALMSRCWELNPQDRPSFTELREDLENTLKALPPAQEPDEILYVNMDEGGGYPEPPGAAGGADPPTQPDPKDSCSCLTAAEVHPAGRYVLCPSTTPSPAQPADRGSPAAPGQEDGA
Method: Biological Example 1: Measurement of an Axl Inhibitory Activity (In Vitro Test)
An Axl enzyme inhibitory activity was measured by using LanthaScreen (registered trademark) system (Invitrogen) based on the attached instruction. The reagents used are shown below.
Reaction buffer solution: a solution containing 50 mmol/L HEPES (pH7.5), 0.01% Brij35, 10 mmol/L MgCl2 and 1 mmol/L EGTA was prepared by using purified water.
Test substance solution: a solution containing a test compound of 5-fold concentration with respect to the final concentration was prepared by 20-fold diluting a DMSO solution of test compound of each concentration with the reaction buffer solution.
Enzyme solution: a solution containing 400 ng/mL Axl enzyme was prepared by using the reaction buffer solution.
Substrate solution: a solution containing 45 μmmol/L ATP and 500 nmmol/L Fluorescein-Poly GT (Invitrogen) was prepared by using the reaction buffer solution.
Detection solution: a solution containing 20 mM EDTA and 4 nM PY20 (Invitrogen) was prepared by using Dilution B (Invitrogen).
A 10 mmol/L DMSO solution of the test compound was dispensed into a 96-well plate (Nunc), and, furthermore, a 3-fold dilution series was prepared using DMSO. In each well of the 96-well plate for measurement, 5 μL each of the reaction buffer solution containing DMSO was added to a Blank group and a medium group, and 5 μL of the test substance solution was added to the test substance group, respectively. Next, 10 μL/well of the reaction buffer solution was added to the Blank group, and 10 μL/well each of the enzyme solution was added to the medium group and the test compound group, followed by stirring at room temperature for 10 min. After the completion of stirring, 10 μL each of the substrate solution was added into each well, followed by stirring at room temperature with light shielded for one hour. After the completion of reaction, 25 μL each of the detection solution was added to each well, and stood still at room temperature with light shielded for 30 min. After standing sill, fluorescence intensity at 520 nm and 495 nm at the time of irradiation with exciting light of 340 nm was measured by using Analyst GT (Molecular Devices). The phosphorylation of the artificial substrate was quantified by Time-resolved Fluorescence Resonance Energy Transfer (TR-FRET). TR-FRET ratio was calculated by dividing 520 nm fluorescence signal by 495 nm fluorescence signal for each well, and the inhibition rate (%) in the test compound group was calculated based on the following mathematical formula. Inhibition rate (%)=[1−(TR-FRET ratio of test compound group−A)/(B−A)×100 [Math. 1] A: average value of TR-FRET ratios of Blank group B: average value of TR-FRET ratios of medium group
Values of 50% inhibition rate (IC50 values) of the test compound were calculated from the inhibition curve based on the inhibition rate of the test compounds in each concentration.

Ba/F3 Axl = target: T2, Ba/F3 Axl (Homo sapiens, UniProt P30530); test: Proliferation suppression rate using mouse pro-B cell line (Ba/F3 Axl) stably expressing Axl; assay type: cell-based; details: Ba/F3 Axl cells, 48 hours, CellTiter-Glo; read-out: IC50 value, proliferation suppression of Ba/F3 Axl
T2 sequence (P30530 1-894): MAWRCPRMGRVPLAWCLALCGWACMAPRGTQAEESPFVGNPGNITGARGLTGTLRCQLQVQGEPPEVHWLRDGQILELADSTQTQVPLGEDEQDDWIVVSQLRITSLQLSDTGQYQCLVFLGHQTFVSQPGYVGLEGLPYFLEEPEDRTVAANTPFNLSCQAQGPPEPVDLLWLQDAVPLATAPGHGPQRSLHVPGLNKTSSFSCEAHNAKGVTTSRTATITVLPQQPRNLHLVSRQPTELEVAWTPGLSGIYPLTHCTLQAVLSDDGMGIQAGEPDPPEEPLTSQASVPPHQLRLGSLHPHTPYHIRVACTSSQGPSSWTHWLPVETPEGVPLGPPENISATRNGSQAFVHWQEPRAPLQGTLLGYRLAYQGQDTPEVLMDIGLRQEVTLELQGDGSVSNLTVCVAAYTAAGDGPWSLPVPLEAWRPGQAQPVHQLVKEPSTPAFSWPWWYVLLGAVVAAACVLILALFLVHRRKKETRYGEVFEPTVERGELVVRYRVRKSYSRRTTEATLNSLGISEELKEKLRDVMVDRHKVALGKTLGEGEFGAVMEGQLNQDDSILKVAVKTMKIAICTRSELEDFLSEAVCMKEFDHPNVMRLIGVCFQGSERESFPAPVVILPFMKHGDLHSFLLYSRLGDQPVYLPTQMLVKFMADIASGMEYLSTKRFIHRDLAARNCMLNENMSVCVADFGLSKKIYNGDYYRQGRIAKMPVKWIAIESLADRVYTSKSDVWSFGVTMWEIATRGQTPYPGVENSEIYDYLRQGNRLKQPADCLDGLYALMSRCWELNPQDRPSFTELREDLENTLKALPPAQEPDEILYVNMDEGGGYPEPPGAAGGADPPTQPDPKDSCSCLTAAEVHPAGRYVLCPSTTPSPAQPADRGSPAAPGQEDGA
Method: Biological Example 2: Measurement of Proliferation Suppression Rate by Using Mouse Pro-B Cell Line (Ba/F3 Axl) Stably Expressing Axl
A 0.1 mmol/L DMSO solution of the test compound was dispensed into a 96-well plate, and a 3-fold dilution series was prepared using DMSO. DMSO solutions of test compounds, having various concentrations, were further 500-fold diluted with a RPMI1640 medium (containing 10% HI-FBS, 1% penicillin) and a diluted solution of the test compound having […] with respect to the final concentration was prepared. In each well of the 96-well plate (BD Biosciences) for measurement, 50 μL of a RPMI medium was added to the Blank group, 50 μL of a RPMI medium containing 0.2% DMSO was added to the medium group, and 50 μL of the diluted solution of the test compound was added to the test compound group, respectively. Ba/F3 Axl was diluted with a medium to have a density of 2×10^5 cells/mL to prepare a cell suspension. In each well of the 96-well plate for measurement, 50 μL each of the RPMI medium was added to the Blank group, and 50 μL each of the cell suspension to the medium group and the test compound group, respectively, and the groups were stood still at 37° C. at 5% CO2 for 48 hours. After standing still, Relative Light Unit (RLU) was measured by using CELLTITER-GLO (registered trademark) LUMINESCENT CELL VIABILITY ASSAY (Promega). The measurement was carried out according to the attached instruction. To each well, 100 μL each of light-emitting solution was added. The plate was stirred at room temperature for 3 min and then stool still at room temperature with light shielded for 10 min, and RLU was measured by using Microplate Reader (SpectraMax M5e, Molecular Devices). The average values of RLU of the Blank group and the medium group were respectively calculated, and the proliferation suppression rate of the test compound group was calculated. Proliferation suppression rate (%)={1−(RLU of test compound group−A)/(B−A)}×100 [Math. 2] A: average value of RLU of Blank group B: average value of RLU of medium group
A value of 50% inhibition rate (IC50 value) of the test compound was calculated from the inhibition curve based on the inhibition rate in each concentration of the test compound.

KDR = KDR (Homo sapiens, UniProt P35968); test: Evaluation of kinase selectivity (in vitro test), KDR; assay type: biochemical; details: Axl selective inhibitory activity with respect to KDR, ratio of IC50 values
Method: Biological Example 3: Evaluation of Kinase Selectivity (In Vitro Test)
Similar to Biological Example 1, values of 50% inhibition rate (IC50 value) with respect to various kinases (KDR, DDR1, FLT4, and ROS) of the test compound were measured. The Axl selective inhibitory activity of the test compound with respect to kinases, for example, KDR, was calculated based on the above-mentioned ratio of the IC50 values. As the test compound, for the compound of the present invention, the compounds of Examples 5, 5(1), 17(2), and 23(2) were used, and for the comparative compounds, the compound of Example 5 (Comparative compound C) and the compound of Example 92 (Comparative compound D) described in Patent Literature 5, having the following structure, were used.

Chain of KDR (P35968 20-1356): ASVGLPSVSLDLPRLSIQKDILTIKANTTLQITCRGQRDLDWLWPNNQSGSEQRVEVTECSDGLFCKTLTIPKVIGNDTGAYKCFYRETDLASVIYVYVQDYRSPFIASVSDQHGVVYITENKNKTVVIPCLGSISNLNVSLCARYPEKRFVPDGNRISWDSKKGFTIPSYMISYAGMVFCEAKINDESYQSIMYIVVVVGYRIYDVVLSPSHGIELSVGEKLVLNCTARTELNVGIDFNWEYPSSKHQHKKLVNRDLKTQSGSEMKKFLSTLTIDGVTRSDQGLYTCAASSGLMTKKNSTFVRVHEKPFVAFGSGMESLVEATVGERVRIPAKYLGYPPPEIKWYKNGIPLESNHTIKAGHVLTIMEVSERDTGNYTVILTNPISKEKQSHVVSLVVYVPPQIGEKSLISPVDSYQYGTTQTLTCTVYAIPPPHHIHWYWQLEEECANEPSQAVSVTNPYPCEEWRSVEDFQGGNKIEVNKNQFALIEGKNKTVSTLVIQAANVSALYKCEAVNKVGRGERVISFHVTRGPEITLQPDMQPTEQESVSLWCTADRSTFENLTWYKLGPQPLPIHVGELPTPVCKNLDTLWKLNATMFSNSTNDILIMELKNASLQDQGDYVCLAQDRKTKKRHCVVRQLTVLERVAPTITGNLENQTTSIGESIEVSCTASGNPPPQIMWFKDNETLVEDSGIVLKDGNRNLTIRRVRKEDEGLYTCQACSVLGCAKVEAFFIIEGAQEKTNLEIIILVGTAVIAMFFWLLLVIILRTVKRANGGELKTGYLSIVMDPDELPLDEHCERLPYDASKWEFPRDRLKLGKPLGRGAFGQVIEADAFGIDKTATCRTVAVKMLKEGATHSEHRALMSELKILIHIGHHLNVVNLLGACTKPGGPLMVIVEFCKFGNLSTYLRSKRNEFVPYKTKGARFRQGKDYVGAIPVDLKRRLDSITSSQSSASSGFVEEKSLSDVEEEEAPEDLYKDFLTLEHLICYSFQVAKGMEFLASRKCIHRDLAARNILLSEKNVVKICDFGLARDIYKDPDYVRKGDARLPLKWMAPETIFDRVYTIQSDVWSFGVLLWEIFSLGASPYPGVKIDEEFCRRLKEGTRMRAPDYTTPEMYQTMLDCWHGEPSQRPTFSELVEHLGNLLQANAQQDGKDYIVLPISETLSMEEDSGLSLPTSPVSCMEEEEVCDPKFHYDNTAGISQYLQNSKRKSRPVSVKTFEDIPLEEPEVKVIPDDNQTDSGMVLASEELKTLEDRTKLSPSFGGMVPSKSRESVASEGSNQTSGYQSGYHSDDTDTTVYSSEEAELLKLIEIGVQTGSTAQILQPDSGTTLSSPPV

IC50 (Axl enzyme) [nM] | GI50 (Ba/F3 Axl) [nM] | KDR [IC50]/Axl [IC50] (KDR) | SMILES
> 10000 | 620 | – | COc1cc2nccc(Oc3ccc(NC(=O)c4nn(C)c5ccccc45)cc3F)c2cc1OC [Comparative compound A, reference compound]
> 10000 | > 10000 | – | COc1cc2nccc(Oc3ccc(NC(=O)c4cc5ccccc5[nH]c4=O)cc3)c2cc1OC [Comparative compound B, reference compound]
– | – | about 0.2 times | COc1cc2c(Oc3ccc(NC(=O)c4cccc5cccnc45)cc3F)ccnc2cc1OCCCN1CCOCC1 [Comparative compound C, reference compound]
– | – | about 28 times | COc1cc2c(Oc3ccc(NC(=O)c4ccnn(-c5ccc(F)cc5)c4=O)cn3)ccnc2cc1OCCCN1CCOCC1 [Comparative compound D, reference compound]
4.3 | 7.8 | – | COc1cc2nccc(Oc3ccc(NC(=O)c4cc5c(n(CC(C)(C)C)c4=O)CCCC5=O)nc3)c2cc1OC [Example 5(6), N-{5-[(6,7-dimethoxy-4-quinolinyl)oxy]-2-pyridinyl}-1-(2,2-dimethylpropyl)-2,5-dioxo-1,2,5,6,7,8-hexahydro-3-quinolinecarboxamide]
